What was measured:
[1] = Kinetics study of TCO-Tz click reaction by UV spectroscopy (540 nm); settings: MeCN, 20° C.
Procedure: FIG. 1: The kinetics of TCO E-02a and 3,6-di(pyridin-2-yl)-1,2,4,5-tetrazine with a concentration of 10 and 50 μM at 20° C. in MeCN.
The reaction rate in a TCO-Tz click reaction of E-02a was measured under similar conditions as described in Versteegen et al., Angewandte Chemie International Edition 2013, 52 (52), 14112-14116. The second order reaction constant of the reaction between 3,6-di(pyridin-2-yl)-1,2,4,5-tetrazine and E-02a was determined under second order conditions in MeCN at 20° C. by UV spectroscopy. A cuvette was filled with MeCN (2.8 mL) and equilibrated at 20° C. A stock solution of tetrazine in DMSO (100 μl) was added to the cuvette. The absorption of the tetrazine moiety was measured at 540 nm. Next, the cuvette was removed from the apparatus to add a stock solution of E-02a in DMSO (100 μl) and briefly mixed the solution by shaking the cuvette before placing it back into the apparatus. The absorption at 540 nm was measured for 15 minutes. From this absorption at 540 nm, the concentration of tetrazine was calculated using a molar absorption coefficient of ε=430 M^−1 cm^−1. […] TCO reactions known from the prior art (Versteegen et al., Angewandte Chemie International Edition 2013, 52 (52), 14112-14116, DOI: 10.1002/anie.201305969) were assessed at 83.3 μM and afforded a lower rate of 62, 5 M^−1s^−1 under similar conditions.

[2] = 19F-NMR kinetic study of click-to-release reaction (release of PFP)
Procedure: FIG. 2: ^19F-NMR kinetic study of the click-to-release reaction of 20 mM TCO (E-03a) with 3,6-di(pyridin-2-yl)-1,2,4,5-tetrazine at 20° C.
The ^19F NMR (377 MHz) spectrum of an NMR-tube filled with a solution of E-03a (5 mg, 1.0 equiv, 11.9 μmol) in CDCl3 (500 μl) was measured. Next, a solution of 3,6-di(pyridin-2-yl)-1,2,4,5-tetrazine (3.1 mg, 1.1 equiv, 13 μmol) in CDCl3 (100 μl) was added to the NMR tube. The tube was vigorously shaken and placed back in the NMR apparatus. The sample was measured within two minutes after the addition of the second compound. Every 48 seconds a measurement (number of scans: 4, relaxation delay: 5.8 see, range: −147.0 to −178.5 ppm) was taken of the sample. After 160 minutes the measurements were stopped.
Only after elevating the temperature to +10° C., the pentafluorophenyl carbonate was released from the conjugated product. Release of payload from compounds of the invention was not only found to be fast, but also complete. […] The fastest payload release observed with their compounds afforded less than 20% release over 250 minutes.

[3] = Stability test of TCO in deuterated PBS buffer at 37° C. followed by 1H-NMR; assay type: physicochemical; settings: covered from light
Procedure: An NMR tube was charged with a solution of E-04a (41 mg) in deuterated PBS buffer (500 μl). The NMR sample was placed in a water bath at 37° C. while being covered from light by aluminum foil.

[4] = Kinetics study of fluorophore (AMC) release, fluorescence, with BP tetrazine; settings: PBS pH=7.2, 37° C., first-order one phase fit
Procedure: (§1) A procedure adapted from prior art was followed (Fan, X. et al., Optimized tetrazine derivatives for rapid bioorthogonal decaging in living cells. Angew. Chem. 2016, 128 (45), 14252-14256.)
(§2) Stock solutions (all in DMSO) • Stock A (R): E-022a (10 mmolar) • Stock A (NR): E-022b (10 mmolar) • Stock B (DM): 3,6-Dimethyl-1,2,4,5-tetrazine (DM) (20 mmolar) • Stock B (BP): 3,6-Di-2-pyridyl-1,2,4,5-tetrazine (BP) (20 mmolar) • Stock PC: 7-Amino-4-methylcoumarin (10 mmolar) 2.5 μL of the tetrazine stock (DM or BP) was mixed with 395.5 μL of PBS (pH=7.2). 2 μL of the TCO stock (A (R) or A (NR)) was added to this. The reaction mixtures were incubated at 37° C. under mixing (300 rpm). Subsequently, the fluorescence (F1) was measured (ex: 380 nm, em. 450 nm) at certain time points after the addition of the TCO by aliquoting 30 μL in a 384 wells plate (Greiner, black non-binding flat bottom) and directly measuring with a Tecan Spark plate-reader. As control experiment the maximum amount of released AMC was measured (F2, Stock PC without tetrazine or TCO). […] The release efficiency (%) was calculated: F1/F2×100%. All experiments were executed in triplo and the data was processed using GraphPad Prism (version 9.0). The Kelim. values were determined by first-order exponential one phase decay approximations. […] For BP this value was 2.96*10^−6S^−1.

[5] = Kinetics study of fluorophore (AMC) release, fluorescence, with DM tetrazine; settings: PBS pH=7.2, 37° C.
Procedure: as §1, §2

[6] = Kinetics study of doxorubicin release by HPLC/LCMS; settings: PBS pH=7.2, 37° C., directly after addition of tetrazine
Procedure: Stock solutions (all in DMSO) • Stock E-025a: E-025a (10 mmolar) • Stock Ttz: 3,6-dimethyl-1,2,4,5-tetrazine (XA, 20 mmolar) Procedure: 100 μL of the TCO-Dox stock was added to 900 μL of PBS (pH=7.2) and HPLC analysis was done which only indicated starting material (t=13.08 min). Hereafter the reaction was incubated at 37° C. under mixing (300 rpm) and 500 μL of the Ttz stock was added. At certain time points after the addition of the Ttz the reaction mixture was analyzed by aliquoting 200 μL and analysis by HPLC/LCMS.

CCOC(=O)C1C2CC=CC(O)CCC21 (single isomer, unassigned) [E-02a]
second order rate constant k2 (reaction rate) of click reaction ([1]; concentration 10 μM): 249 M⁻¹ s⁻¹
second order rate constant k2 (reaction rate) of click reaction ([1]; concentration 50 μM): 437 M⁻¹ s⁻¹

CCOC(=O)[C@H]1[C@@H]2CCC(OC(=O)Oc3c(F)c(F)c(F)c(F)c3F)C=CC[C@@H]21 (stereo in doubt) [E-03b, ethyl (1S,5R,8R,9S, E)-5-(((perfluorophenoxy)carbonyl)oxy)bicyclo[6.1.0]non-3-ene-9-carboxylate]
release rate compared with E-03a ([2]; E-03b used instead of E-03a): several factors slower

CCOC(=O)[C@H]1[C@@H]2CC[C@@H](OC(=O)Oc3c(F)c(F)c(F)c(F)c3F)/C=C/C[C@@H]21 [E-03a, ethyl (1S,5R,8R,9S, E)-5-(((perfluorophenoxy)carbonyl)oxy)bicyclo[6.1.0]non-3-ene-9-carboxylate]
release of PFP (pentafluorophenolate) after 20 minutes ([2]; 20 mM TCO, CDCl3, 20° C., 1.1 equiv tetrazine): Almost complete release
release upon tautomerization from the click product ([2]; lower temperatures, 40 mM, dipyridyl tetrazine): instantaneous
formation of pentafluorophenol from click conjugate ([2]; −20° C., 40 mM, dipyridyl tetrazine): did not show any formation of pentafluorophenol

O=C(O)[C@H]1[C@@H]2CC[C@@H](O)/C=C/C[C@@H]21 [E-04a, (1S,5R,8R,9S, E)-5-hydroxybicyclo[6.1.0]non-3-ene-9-carboxylic acid]
changes in the 1H-NMR spectrum after 7 days [3]: no changes

CCOC(=O)[C@H]1[C@@H]2CC[C@@H](OC(=O)Nc3ccc4c(C)cc(=O)oc4c3)/C=C\C[C@@H]21 [E-022a, COOEt-Exo-Axial-TCO-AMC]
Kelim. value of AMC release [4]: 2.96*10^−6 S^−1
Kelim. value of AMC release ([5]; DM tetrazine, first-order one phase fit): 8.15*10^−5 S^−1

CCOC(=O)[C@H]1[C@@H]2CCC(OC(=O)Nc3ccc4c(C)cc(=O)oc4c3)/C=C\C[C@@H]21 (stereo partly drawn) [E-022b, COOEt-Exo-Equatorial-TCO-AMC]
AMC release compared with E-022a ([5]; tetrazine (DM or BP) not specified): slower

CCOC(=O)[C@H]1[C@@H]2CC[C@@H](OC(=O)N[C@H]3C[C@H](O[C@H]4C[C@](O)(C(=O)CO)Cc5c(O)c6c(c(O)c54)C(=O)c4c(OC)cccc4C6=O)O[C@@H](C)[C@@H]3O)/C=C\C[C@@H]21 [E-025a, COOEt-Exo-Axial-TCO-PNP]
release of doxorubicin after addition of the tetrazine [6]: almost instant release

From patent publication US20240294457A1, “Strained bi-functionalized trans-cyclooctenes” (Stichting Radboud Universiteit, priority 2021, published 2024)
